Assay results as given in ChEMBL document CHEMBL4043305, “Structure-Activity Relationship Study of Cyclic Pentapeptide Ligands for Atypical Chemokine Receptor 3 (ACKR3)” (J Med Chem, 2018).

How the values were obtained:
[1] = biological target: Atypical chemokine receptor 3 (Homo sapiens, UniProt P25106); test: Displacement of [125I]SDF-1alpha from ACKR3 (unknown origin) expressed in CHO cells after 1 hr by scintillation counting method; format: cell-based
[2] = biological target: C-X-C chemokine receptor type 4 (Homo sapiens, UniProt P61073); test: Displacement of [125I]SDF-1alpha from CXCR4 (unknown origin) expressed in HEK293 cells after 1 hr by scintillation counting method; format: cell-based
C-X-C chemokine receptor type 4, sequence (P61073 whole entry): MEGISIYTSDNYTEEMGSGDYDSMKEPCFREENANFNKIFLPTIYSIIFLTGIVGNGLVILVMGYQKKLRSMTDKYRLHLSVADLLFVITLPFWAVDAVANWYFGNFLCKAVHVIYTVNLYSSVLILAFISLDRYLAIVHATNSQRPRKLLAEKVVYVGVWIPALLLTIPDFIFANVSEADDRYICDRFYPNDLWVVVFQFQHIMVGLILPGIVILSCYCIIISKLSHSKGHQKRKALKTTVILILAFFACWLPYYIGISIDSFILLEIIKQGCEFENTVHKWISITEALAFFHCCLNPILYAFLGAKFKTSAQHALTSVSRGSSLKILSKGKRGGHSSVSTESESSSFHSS

Atypical chemokine receptor 3, sequence (P25106 whole entry): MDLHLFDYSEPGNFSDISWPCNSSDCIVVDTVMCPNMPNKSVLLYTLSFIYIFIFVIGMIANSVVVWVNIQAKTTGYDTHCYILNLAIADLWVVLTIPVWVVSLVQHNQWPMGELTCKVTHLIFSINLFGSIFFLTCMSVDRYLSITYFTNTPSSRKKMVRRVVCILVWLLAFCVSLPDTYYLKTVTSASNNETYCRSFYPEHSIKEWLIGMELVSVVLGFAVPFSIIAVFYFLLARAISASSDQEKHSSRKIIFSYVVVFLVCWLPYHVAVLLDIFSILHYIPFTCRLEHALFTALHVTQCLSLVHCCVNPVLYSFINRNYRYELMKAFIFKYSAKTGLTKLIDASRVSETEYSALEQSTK

Row | IC50 [1] [µM] | IC50 [2] [µM] | SMILES
1 | 2 to 24 | > 30 | CN1C(=O)[C@@H]2CCCN2C(=O)[C@@H](Cc2ccc(O)cc2)NC(=O)[C@@H]2CCCN2C(=O)[C@H](Cc2ccc3ccccc3c2)NC(=O)[C@@H]1CCCNC(=N)N
2 | 1 | > 30 | CN1C(=O)[C@H](CCCNC(=N)N)NC(=O)[C@@H](Cc2ccc(O)cc2)NC(=O)[C@H](Cc2csc3ccccc23)N(C)C(=O)[C@H](Cc2ccc3ccccc3c2)NC(=O)[C@@H]1CCCNC(N)=O
3 | 4.2 | > 30 | CN1C(=O)[C@H](CCCNC(=N)N)NC(=O)[C@@H](Cc2ccc(O)cc2)NC(=O)[C@@H]2Cc3ccccc3CN2C(=O)[C@H](Cc2ccc3ccccc3c2)NC(=O)[C@@H]1CCCNC(N)=O
4 | 2 to 24 | > 30 | C[C@@H](O)[C@@H]1NC(=O)[C@@H](Cc2ccc(O)cc2)NC(=O)[C@@H]2CCCN2C(=O)[C@H](Cc2ccc3ccccc3c2)NC(=O)[C@H](CCCNC(=N)N)N(C)C1=O
5 | 2 to 24 | > 30 | CN1C(=O)[C@H](CCCCN)NC(=O)[C@@H](Cc2ccc(O)cc2)NC(=O)[C@@H]2CCCN2C(=O)[C@H](Cc2ccc3ccccc3c2)NC(=O)[C@@H]1CCCNC(=N)N
6 | 1.8 | > 30 | CSCC[C@H]1C(=O)N[C@H](Cc2ccc(O)cc2)C(=O)N[C@@H](CCCNC(=N)N)C(=O)N(C)[C@@H](CCCNC(N)=O)C(=O)N[C@@H](Cc2ccc3ccccc3c2)C(=O)N1C
7 | 2 to 24 | > 30 | CN1C(=O)[C@H](CO)NC(=O)[C@@H](Cc2ccc(O)cc2)NC(=O)[C@@H]2CCCN2C(=O)[C@H](Cc2ccc3ccccc3c2)NC(=O)[C@@H]1CCCNC(=N)N
8 | 1.8 | > 30 | CN1C(=O)[C@H](CCCNC(=N)N)NC(=O)[C@@H](Cc2ccc(O)cc2)NC(=O)[C@H](Cc2ccc(O)cc2)N(C)C(=O)[C@H](Cc2ccc3ccccc3c2)NC(=O)[C@@H]1CCCNC(N)=O
9 | 2.2 | > 30 | CC[C@H](C)[C@H]1C(=O)N[C@H](Cc2ccc(O)cc2)C(=O)N[C@@H](CCCNC(=N)N)C(=O)N(C)[C@@H](CCCNC(N)=O)C(=O)N[C@@H](Cc2ccc3ccccc3c2)C(=O)N1C
10 | 2 to 24 | > 30 | CN1C(=O)[C@H](Cc2cnc[nH]2)NC(=O)[C@@H](Cc2ccc(O)cc2)NC(=O)[C@@H]2CCCN2C(=O)[C@H](Cc2ccc3ccccc3c2)NC(=O)[C@@H]1CCCNC(=N)N
11 | 0.45 |  | CN1C(=O)[C@H](CCCCNC(=N)N)NC(=O)[C@@H](Cc2ccccc2F)NC(=O)[C@H](Cc2cccc3ccccc23)N(C)C(=O)[C@H](Cc2ccc3ccccc3c2)NC(=O)[C@@H]1CCCCNC(=N)N
12 | 0.41 | > 30 | CN1C(=O)[C@H](CCCNC(=N)N)NC(=O)[C@@H](Cc2ccccc2F)NC(=O)[C@@H]2CCCN2C(=O)[C@H](Cc2ccc3ccccc3c2)NC(=O)[C@@H]1CCCNC(N)=O
13 | 1.2 | > 30 | CN1C(=O)[C@H](CCCNC(=N)N)NC(=O)[C@@H](Cc2ccc(F)cc2)NC(=O)[C@@H]2CCCN2C(=O)[C@H](Cc2ccc3ccccc3c2)NC(=O)[C@@H]1CCCNC(N)=O
14 | 4 | > 30 | CN1C(=O)[C@H](CCCNC(=N)N)NC(=O)[C@@H](Cc2ccc(O)cc2)NC(=O)[C@H](Cc2ccc(-c3ccccc3)cc2)N(C)C(=O)[C@H](Cc2ccc3ccccc3c2)NC(=O)[C@@H]1CCCNC(N)=O
15 | 13 | > 30 | CN1C(=O)[C@H](CCCNC(=N)N)NC(=O)[C@@H](Cc2ccc(O)cc2)NC(=O)[C@@H]2CCCN2C(=O)[C@H](Cc2ccc3ccccc3c2)NC(=O)[C@@H]1CCCNC(N)=O
16 | 2 to 24 | > 30 | CC[C@H](C)[C@@H]1NC(=O)[C@@H](Cc2ccc(O)cc2)NC(=O)[C@@H]2CCCN2C(=O)[C@H](Cc2ccc3ccccc3c2)NC(=O)[C@H](CCCNC(=N)N)N(C)C1=O
17 | 3.6 | > 30 | CN1C(=O)[C@H](CCCNC(N)=O)NC(=O)[C@@H](Cc2ccc(O)cc2)NC(=O)[C@@H]2CCCN2C(=O)[C@H](Cc2ccc3ccccc3c2)NC(=O)[C@@H]1CCCNC(=N)N
18 | 4.9 | > 30 | CC(C)[C@H]1C(=O)N[C@H](Cc2ccc(O)cc2)C(=O)N[C@@H](CCCNC(=N)N)C(=O)N(C)[C@@H](CCCNC(N)=O)C(=O)N[C@@H](Cc2ccc3ccccc3c2)C(=O)N1C
19 | 2 to 24 | > 30 | CN1C(=O)[C@H](Cc2c[nH]c3ccccc23)NC(=O)[C@@H](Cc2ccc(O)cc2)NC(=O)[C@@H]2CCCN2C(=O)[C@H](Cc2ccc3ccccc3c2)NC(=O)[C@@H]1CCCNC(=N)N
20 | 5 | > 30 | CN1C(=O)[C@H](CCCNC(=N)N)NC(=O)[C@@H](CCc2ccccc2)NC(=O)[C@@H]2CCCN2C(=O)[C@H](Cc2ccc3ccccc3c2)NC(=O)[C@@H]1CCCNC(N)=O
21 | 3.2 | > 30 | CN1C(=O)[C@H](CCCNC(=N)N)NC(=O)[C@@H](Cc2c[nH]c3ccccc23)NC(=O)[C@@H]2CCCN2C(=O)[C@H](Cc2ccc3ccccc3c2)NC(=O)[C@@H]1CCCNC(N)=O
22 | 0.56 | > 30 | CN1C(=O)[C@H](CCCNC(=N)N)NC(=O)[C@@H](Cc2ccc(O)cc2)NC(=O)[C@@H]2CCCN2C(=O)[C@H](Cc2ccc3ccccc3c2)NC(=O)[C@@H]1CCCCNC(=N)N

Row | IC50 [1] [µM] | IC50 [2] [µM] | SMILES
23 | 2 to 24 | > 30 | CC(C)[C@@H]1NC(=O)[C@@H](Cc2ccc(O)cc2)NC(=O)[C@@H]2CCCN2C(=O)[C@H](Cc2ccc3ccccc3c2)NC(=O)[C@H](CCCNC(=N)N)N(C)C1=O
24 | 0.72 | > 30 | CN1C(=O)[C@H](CCCNC(=N)N)NC(=O)[C@@H](Cc2ccc(Br)cc2)NC(=O)[C@@H]2CCCN2C(=O)[C@H](Cc2ccc3ccccc3c2)NC(=O)[C@@H]1CCCNC(N)=O
25 | 2.6 | > 30 | CN1C(=O)[C@H](CCCNC(=N)N)NC(=O)[C@@H](Cc2ccc(O)cc2)NC(=O)[C@H](Cc2ccc3ccccc3c2)N(C)C(=O)[C@H](Cc2ccc3ccccc3c2)NC(=O)[C@@H]1CCCNC(N)=O
26 | 9.5 | > 30 | CN1C(=O)[C@H](CCC(N)=O)NC(=O)[C@@H](Cc2ccc(O)cc2)NC(=O)[C@@H]2CCCN2C(=O)[C@H](Cc2ccc3ccccc3c2)NC(=O)[C@@H]1CCCNC(=N)N
27 | 2.6 | > 30 | CN1C(=O)[C@H](CCCN)NC(=O)[C@@H](Cc2ccc(O)cc2)NC(=O)[C@@H]2CCCN2C(=O)[C@H](Cc2ccc3ccccc3c2)NC(=O)[C@@H]1CCCNC(=N)N
28 | 0.54 | > 30 | CN1C(=O)[C@H](CCCNC(=N)N)NC(=O)[C@@H](Cc2csc3ccccc23)NC(=O)[C@@H]2CCCN2C(=O)[C@H](Cc2ccc3ccccc3c2)NC(=O)[C@@H]1CCCNC(N)=O
29 | 1.9 | > 30 | CC(C)C[C@H]1C(=O)N[C@H](Cc2ccc(O)cc2)C(=O)N[C@@H](CCCNC(=N)N)C(=O)N(C)[C@@H](CCCNC(N)=O)C(=O)N[C@@H](Cc2ccc3ccccc3c2)C(=O)N1C
30 | 0.85 | > 30 | CN1C(=O)[C@H](CCCNC(=N)N)NC(=O)[C@@H](Cc2ccc(O)cc2)NC(=O)[C@H](Cc2c[nH]c3ccccc23)NC(=O)[C@H](Cc2ccc3ccccc3c2)NC(=O)[C@@H]1CCCNC(N)=O
31 | 1.3 | > 30 | CN1C(=O)[C@H](CCCNC(=N)N)NC(=O)[C@@H](Cc2cccc(F)c2)NC(=O)[C@@H]2CCCN2C(=O)[C@H](Cc2ccc3ccccc3c2)NC(=O)[C@@H]1CCCNC(N)=O
32 | 0.25 | > 30 | CN1C(=O)[C@@H](CS)NC(=O)[C@@H](Cc2ccc(O)cc2)NC(=O)[C@@H]2CCCN2C(=O)[C@H](Cc2ccc3ccccc3c2)NC(=O)[C@@H]1CCCNC(=N)N
33 | 0.84 | > 30 | CN1C(=O)[C@H](CCCCNC(=N)N)NC(=O)[C@@H](Cc2ccc(O)cc2)NC(=O)[C@@H]2CCCN2C(=O)[C@H](Cc2ccc3ccccc3c2)NC(=O)[C@@H]1CCCNC(=N)N
34 | 0.52 | 10 | CN1C(=O)[C@H](CCCNC(=N)N)NC(=O)[C@@H](Cc2ccc(O)cc2)NC(=O)[C@H](Cc2c[nH]c3ccccc23)N(C)C(=O)[C@H](Cc2ccc3ccccc3c2)NC(=O)[C@@H]1CCCNC(N)=O
35 | 2 to 24 | > 30 | CN1C(=O)[C@H](Cc2ccc(O)cc2)NC(=O)[C@@H](Cc2ccc(O)cc2)NC(=O)[C@@H]2CCCN2C(=O)[C@H](Cc2ccc3ccccc3c2)NC(=O)[C@@H]1CCCNC(=N)N
36 | 0.35 | > 30 | CN1C(=O)[C@H](CCCNC(=N)N)NC(=O)[C@@H](Cc2ccc(O)cc2)NC(=O)[C@@H]2C[C@@H]3CCCC[C@@H]3N2C(=O)[C@H](Cc2ccc3ccccc3c2)NC(=O)[C@@H]1CCCNC(N)=O
37 | 4.6 | 21 | CN1C(=O)[C@H](Cc2ccc3ccccc3c2)NC(=O)[C@H](CCCNC(N)=O)N(C)C(=O)[C@H](CCCNC(=N)N)NC(=O)[C@@H](Cc2ccc(O)cc2)NC(=O)[C@H]1CS
38 | 0.79 | > 30 | CN1C(=O)[C@H](CCCNC(=N)N)NC(=O)[C@@H](Cc2ccc(Cl)cc2)NC(=O)[C@@H]2CCCN2C(=O)[C@H](Cc2ccc3ccccc3c2)NC(=O)[C@@H]1CCCNC(N)=O
39 | 5.8 | > 30 | CN1C(=O)[C@H](CCCNC(=N)N)NC(=O)[C@@H](Cc2ccc(O)cc2)NC(=O)[C@@H]2CCCN2C(=O)[C@H](Cc2ccc3ccccc3c2)NC(=O)[C@@H]1CCC(N)=O
40 | 0.6 | > 30 | CN1C(=O)[C@H](CCCNC(=N)N)NC(=O)[C@@H](Cc2ccc(O)cc2)NC(=O)[C@H](Cc2ccccc2)N(C)C(=O)[C@H](Cc2ccc3ccccc3c2)NC(=O)[C@@H]1CCCNC(N)=O
41 | 1.1 | > 30 | CN1C(=O)[C@H](CCCNC(=N)N)NC(=O)[C@@H](Cc2ccccc2)NC(=O)[C@@H]2CCCN2C(=O)[C@H](Cc2ccc3ccccc3c2)NC(=O)[C@@H]1CCCNC(N)=O
42 | 2 to 24 | > 30 | CSCC[C@@H]1NC(=O)[C@@H](Cc2ccc(O)cc2)NC(=O)[C@@H]2CCCN2C(=O)[C@H](Cc2ccc3ccccc3c2)NC(=O)[C@H](CCCNC(=N)N)N(C)C1=O
43 | 2.6 | > 30 | CN1C(=O)[C@H](CCNC(=N)N)NC(=O)[C@@H](Cc2ccc(O)cc2)NC(=O)[C@@H]2CCCN2C(=O)[C@H](Cc2ccc3ccccc3c2)NC(=O)[C@@H]1CCCNC(=N)N
